“Also recorded” adds a separate entry of the source.
Key:
[1] = target: T1, aryl hydrocarbon receptor (AHR) (Mus musculus, UniProt P30561); experiment: XRE-driven luciferase reporter assay, mouse Hepa1c1c7; assay type: cell-based
T1 construct: Transfection was performed with 150 ng XRE-luciferase plasmid (Promega); endogenous in cells; host or cells: Hepa-1c1c7 (mouse hepatoma cell line)
Protocol: Human HepG2 or mouse Hepa-1c1c7 cells were seeded in 96 well opaque plates at 75,000 cells per well in full medium (DMEM+10% FBS) for 24 hours. Transfection was performed with 150 ng XRE-luciferase plasmid (Promega) with 4:1 Fugene to DNA ratio for 18 hours in Opti-MEM. Transfected cells were treated with AhR agonist (10^−5-10^−12) for 4.5 h in full medium. Cells were lysed and luciferase was activated using the Luciferase Assay System (Promega). Luminescence signals were measured with a FluroStar Omega microplate reader. Luminescence signals of compound treated groups were normalized to vehicle (DMSO) treated control and plotted as concentration dependent fold changes.

cyp1a1 = cyp1a1 expression by q-PCR in mouse Hepa-1c1c7 cells; assay type: cell-based; conditions: mouse Hepa-1c1c7, 10 nM-10 μM, 8 hours
Protocol: RNA was extracted using TRIzol (Invitrogen) following manufacturer's instructions and 0.1 μg of RNA was converted to cDNA using a high capacity cDNA reverse transcription kit (Invitrogen). qPCR was performed on the Applied Biosystems 7900 using TaqMan® Universal PCR Master Mix (Life Technologies) with TaqMan® (Life Technologies) primers against cyp1a1 (Mm00487218_m1), AhR (Mm00478932_m1), IL-22 (Mm01226722_g1), Foxp3 (Mm00475162_m1), IL-10 (Mm01288386_m1), TNF-a (Mm00443258_m1), IFN-r (Mm01168134_m1). The fold increase from experimental groups to control was calculated using the delta-delta CT method with 18S (Mm00446186_m1) as an internal reference gene. In vitro and in vivo activation of the AhR singling pathway was confirmed by q-PCR characterization of cyp1a1. For in vitro induction, mouse Hepa-1c1c7 were cultured to confluence in 24 well plates in full DMEM followed by 24 hours incubation in tryptophan deficient media. Cells were treated with vehicle control (DMSO), ITE, compound 108, or compound 109 (10 nM-10 μM) for 8 hours in tryptophan deficient media. At the end of treatment, cells were lysed in TRIzol for RNA isolation. To monitor in vivo induction, (0.1-1000 μg) compound 109 was given per mouse via oral gavage in 100 μl of vehicle (1% HPMC, 1% polysorbate 80). After 12 hours, liver, colon, spleen and leukocytes from blood were collected and lysed in TRIzol (Invitrogen) for q-PCR analysis.

DSS induced colitis = DSS induced colitis in mice; assay type: in vivo, C57BL/6 mice
Protocol: C57BL/6 (8-10 week, male) mice were administered drinking water supplemented with 3% (wt/vol) dextran sodium sulfate (DSS; MP Biomedicals) for 7 days followed by a 13 day recovery period with unsupplemented drinking water. Compound 109 or compound 108 were suspended in vehicle (1% HPMC and 1% polysorbate 80 in water) and given daily by oral gavage (1 ug/mouse in 100 uL), starting at day 0. Control mice were administered 100 μL vehicle. Body weight and disease activity index (DAI) were recorded daily. DAI was determined by combining scores of weight loss, stool consistency, blood in stool, activity, and appearance.^1 Scores were determined as follows: change in weight (0: <1%, 1: 1-10%, 2: 10-18%, 3: 18-20%); stool consistency (0: normal, 1: loose stools, 2: diarrhea); stool blood (0: negative, 1: trace blood, 2: bloody stool, 3: gross bleeding), activity (0: normal, 1: low activity, 2: hiding, 3: no response to gentle stimuli) and appearance (0: normal, 1: rigor, 2: hunched posture). On day 7 and day 11, mice were euthanized and colon were removed for length measurement, histology, RNA isolation, and lamina propria mononuclear cell (LPMC) extraction as detailed below.
Dissected colon were cut longitudinally and rolled using the Swiss roll method with the distal side in the center.^2,3 Colons were fixed overnight in 10% neutral buffered formalin, processed for paraffin embedding and sectioned at 5 μm thickness. To visualize and quantify the inflammatory response and crypt loss, hematoxylin and eosin staining (H&E) was performed. Briefly, sections were cleared with xylene, rehydrated through alcohol gradient, stained by hematoxylin, washed by acid and ammonium alcohol, rinsed in water and exposed to Eosin followed by dehydrating through graded alcohols and cleared in xylene. All sections were mounted using Permount (Fisher Scientific) and visualized using a BX41 microscope (Olympus). For histological scoring, 3 transverse sections of Swiss roll were chosen and 9 (100×) images were captured for each section. Images were analyzed for inflammation and crypt structure and scored by a blind observer as follows: inflammation (0: rare inflammatory cells in the lamina propria; 1: increased numbers of inflammatory cells in the lamina propria; 2: confluence of inflammatory cells extending in to the submucosa; 3: transmural extension of the inflammatory infiltrate.); crypt loss (0: none; 1: basal 1/3 damaged; 2: basal 2/3 damaged; 3: only surface epithelium intact; 4: entire crypt and epithelium lost). Inflammation and crypt loss were scored separately and multiplied by a factor of 1-4 to adjust for impacted area of tissue section (1: 0-25%; 2: 25.1-50% affected; 3: 50.1-75% affected; 4: >75% affected).^1,4 To examine goblet cell number, sections were stained by a commercial periodic acid-Schiff (PAS) and Alcian blue kit (Fisher Scientific). For quantification, 3 transverse sections of Swiss roll were chosen per colon and 5 random images at 200x were taken per section in the distal region of the colon. Goblet cell number was counted per image and normalized to colon length by a blind observer using image J.^5
Colonic epithelium and lamina propria cells were isolated as previously described.^6,7 Briefly, colons were dissected and washed with HBSS to remove fecal contents. Colon were opened longitudinally and cut into 2 cm segments. […]

T1 sequence (P30561 10-805 limits assumed): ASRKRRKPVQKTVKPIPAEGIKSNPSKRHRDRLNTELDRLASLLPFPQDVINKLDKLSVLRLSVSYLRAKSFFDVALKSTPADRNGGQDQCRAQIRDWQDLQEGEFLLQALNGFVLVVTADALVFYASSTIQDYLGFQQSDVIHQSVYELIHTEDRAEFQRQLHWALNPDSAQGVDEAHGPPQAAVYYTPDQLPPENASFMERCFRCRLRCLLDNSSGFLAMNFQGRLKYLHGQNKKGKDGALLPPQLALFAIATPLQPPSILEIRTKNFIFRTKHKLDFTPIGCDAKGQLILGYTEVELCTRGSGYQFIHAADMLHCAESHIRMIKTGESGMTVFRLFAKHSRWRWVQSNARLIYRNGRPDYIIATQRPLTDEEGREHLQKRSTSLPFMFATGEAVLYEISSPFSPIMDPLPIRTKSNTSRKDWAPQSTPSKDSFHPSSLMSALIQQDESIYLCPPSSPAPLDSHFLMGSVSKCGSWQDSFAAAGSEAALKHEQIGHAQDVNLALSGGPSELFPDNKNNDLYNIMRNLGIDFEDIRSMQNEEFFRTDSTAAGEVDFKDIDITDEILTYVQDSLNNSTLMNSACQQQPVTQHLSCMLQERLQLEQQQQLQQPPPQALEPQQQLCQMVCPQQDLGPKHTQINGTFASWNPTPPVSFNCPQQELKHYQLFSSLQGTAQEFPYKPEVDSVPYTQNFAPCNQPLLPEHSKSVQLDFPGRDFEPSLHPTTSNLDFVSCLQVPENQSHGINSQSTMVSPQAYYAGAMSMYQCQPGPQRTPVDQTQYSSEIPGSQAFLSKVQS
T1 sequence (P53762 whole entry partner): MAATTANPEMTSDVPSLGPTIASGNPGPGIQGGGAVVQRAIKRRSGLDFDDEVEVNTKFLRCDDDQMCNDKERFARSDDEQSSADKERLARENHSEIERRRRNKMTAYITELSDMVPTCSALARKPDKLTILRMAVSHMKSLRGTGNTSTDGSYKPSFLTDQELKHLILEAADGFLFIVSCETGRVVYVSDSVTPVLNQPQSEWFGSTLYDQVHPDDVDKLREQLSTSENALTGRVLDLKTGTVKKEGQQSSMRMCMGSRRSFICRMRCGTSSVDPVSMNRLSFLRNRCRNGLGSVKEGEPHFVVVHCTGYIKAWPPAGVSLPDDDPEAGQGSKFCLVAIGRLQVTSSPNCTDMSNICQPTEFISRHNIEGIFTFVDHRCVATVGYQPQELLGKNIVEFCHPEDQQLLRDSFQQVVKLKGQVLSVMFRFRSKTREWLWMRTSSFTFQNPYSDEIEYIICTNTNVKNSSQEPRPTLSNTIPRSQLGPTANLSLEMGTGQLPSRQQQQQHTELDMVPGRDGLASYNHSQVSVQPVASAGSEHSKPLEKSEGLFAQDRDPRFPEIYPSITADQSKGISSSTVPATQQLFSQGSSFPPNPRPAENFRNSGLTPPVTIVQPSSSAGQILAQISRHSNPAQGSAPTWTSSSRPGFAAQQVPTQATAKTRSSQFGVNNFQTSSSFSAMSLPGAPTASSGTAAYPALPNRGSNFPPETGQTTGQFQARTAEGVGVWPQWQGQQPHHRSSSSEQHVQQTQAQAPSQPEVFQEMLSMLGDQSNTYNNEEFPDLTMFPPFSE

N#Cc1cccc(C(=O)c2c[nH]c3ccccc23)n1 [Compound 108, 6-(1H-indole-3-carbonyl)pyridine-2-carbonitrile]
EC50 [1]: 94 nM
XRE luciferase Emax (fold) [1]: 86 fold
cyp1a1 expression (qPCR) (cyp1a1): induced AhR-dependent cyp1a1 expression; also recorded: dose dependent induction of cyp1a1 expression
DSS induced colitis, overall effect (DSS induced colitis; 3% DSS 7 days + 13 days recovery, 1 μg daily by oral gavage): attenuates DSS induced colitis
overall disease score (DSS induced colitis; 3% DSS, 1 μg/day PO): improved the overall disease score
survival (DSS induced colitis; 3% DSS, 1 μg/day PO): significantly improved survival
weight loss (DSS induced colitis; 3% DSS, 1 μg/day PO): reduced weight loss

From patent US12152016B2, “Aryl hydrocarbon receptor modulators and uses thereof” (Beth Israel Deaconess Medical Center, Inc., priority 2018, dated 2024)
